Assay results taken from US12246022B2, “Compositions and methods for treating, preventing or reversing age associated inflammation and disorders” (BROWN UNIVERSITY, priority 2019, dated 2025).
Read-outs that look alike come from different tables or passages of the source.

Experiments:
human LINE-1 = assay: Human LINE-1 retrotransposition assay (dual luciferase pYX017 reporter, HeLa cells, Table 11); assay type: cell-based
Experimental: Assays were performed as described in Xie et al., 2011^151 with several modifications. The reporter assay was performed in 96 well white Optical bottom plates. 6000 HeLa cells were seeded in each well 24 hours prior transfection and compound treatment. All compounds were resuspended in DMSO. Stock solution concentrations varied from 50 mM to 1.25 mM depending of the solubility of the compound. Serial dilutions (1:3) were prepared in DMSO. Ten different concentrations of each compound were tested in triplicate. Medium containing different concentrations of the compounds were prepared by adding 2 μL of the compound dilution to 1 mL of the culture medium. The final concentration of DMSO in the medium was 0.2%. FuGENE® HD transfection reagent (Promega) was used to transfect the plasmid pYX016 into the cells. The transfection mix was prepared in OpiMEM (Thermo Fisher) using a reagent to DNA ratio of 3.5:1 according to manufacturer's instructions. Culture medium was removed from the cells and discarded. The transfection mix (5 μL) was mixed with the compound containing medium (100 μL/well) and this was added onto the cells of each well. Cells were incubated for 48H at 37° C./5% CO2. Luciferase reporter activity was quantified with the Dual-Luciferase® Reporter Assay System (Promega) according to manufacturer's instructions for multiwell plates with the following modification: Cells were lysed directly on the multiwell plate with 30 μL of the passive lysis buffer (PLB) for 20 min at room temperature, with gentle shaking to ensure complete cell lysis (instead of 20 μL of PLB for 15 min). Firefly and Renilla luciferase signals were measured using a SpectraMax i3x Multi-Mode Microplate Reader. […] Relative L1 activity was calculated as Firefly/Renilla *10,000. […] The experiment was performed twice, independently. […] Because the human construct yields a lower signal, compounds were incubated with cells for 72 hours instead of 48 hours, and cells were seeded at a density of 2000/well instead of 6000/well. In addition, the transfection reagent to DNA ratio was 2:1 instead of 3.5:1.

IFN-I response = IFN-I response in senescent and 3X human fibroblasts (RT-qPCR, ELISA, immunoblotting); assay type: cell-based
Source text: To obtain replicatively senescent (RS) cells, LF1 cultures were serially propagated until proliferation ceased. At each passage, after reaching 80% confluence cells were trypsinized and diluted 1:4. […] In early passage cultures, the time between passages is constant at approximately 3 days. […] At this point, after reaching 80% confluence, the cells were replated at 1:2 dilution, and this time was designated as the last passage (point A in FIG. 2A). […] Under this experimental regimen, the majority of the cells in the culture enter senescence within a 3-4 weeks window centered roughly around the time of last passage (grey bar in FIG. 2A). At point B (4 weeks), the cultures were trypsinized and replated as described^60 to eliminate a small fraction of persisting contact-inhibited cells. Cultures were again replated at point C (8 weeks).
Oncogene-induced senescence (OIS) was elicited by infecting proliferating LF1 cells with pLenti CMV RasV12 Neo (Addgene plasmid #22259). Generation of lentiviral particles and the infection procedure are described below. At the end of the infection, cells were reseeded at 15-20% confluency and selected with G418 (250 μg/ml) maintained continuously until the end of the experiment Medium was changed every 3 days until the cultures were harvested at the indicated time points. Stress-induced premature senescence (SIPS) was elicited by […] irradiation with 20 Gy given at a rate of 87 cGy/min in one fraction using a cesium-137 gamma source (Nordion Gammacell 40). Cells were 15-20% confluent at the time of irradiation. Medium was changed immediately after irradiation, and at 3-day intervals thereafter. […]
The ABI ViiA 7 instrument (Applied Biosystems) was used for all experiments. qPCR of DNA was performed using the TaqMan system (Applied Biosystems) as described by Coufal et al. (2009).^64 […] of purified genomic DNA was used with the indicated primers (see Table 1). […] Effectiveness of the DNase digestion was assessed using controls that omitted the RT enzyme. […]

[1] = 300 mg per day; cited from earlier work
[2] = Comparative studies: intracellular drug concentration relative to LINE-1 IC50 and huCSF/Plasma ratio; details: Table 13 Comparative Studies
[3] = Table 13 Comparative Studies; cited from earlier work

| Compound | IC50 (human LINE-1; pYX017, 72 H post-transfection, read-out: Human L1 activity inhibition IC50, Exp. 1) [nM] | IC50 (human LINE-1; pYX017, 72 H post-transfection, read-out: Human L1 activity inhibition IC50, Exp. 2) [nM] | IC50 (human LINE-1; pYX017, 72 H, n = 2, read-out: Human L1 activity inhibition IC50, Average) [nM] | IC50 (human LINE-1; read-out: human L1 inhibition IC50) [nM] | concentration range that optimally inhibited the IFN-I response (IFN-I response; senescent cells) [µM] | 3TC in plasma at human HIV therapeutic dose [1] [µM] | Human Line-1 Intracellular drug conc. (% of IC-50 conc.) [2] [%] | interferon gene expression (IFN-α, IFN-β1) (IFN-I response; LF1, 50 μM, drug for 1 month from 3 months in senescence) | huCSF/Plasma [3] |
| --- | --- | --- | --- | --- | --- | --- | --- | --- | --- |
| Nc1ccn([C@@H]2CS[C@H](CO)O2)c(=O)n1 [Lamivudine] | 793 | 867 | 830 | > 800 | 7.5 to 10 | 5 to 8 | 9 |  |  |
| Nc1nc(=O)n([C@@H]2CS[C@H](CO)O2)cc1F [Emtricitabine] |  |  |  |  |  |  | 67 | decreased the expression of interferons | 0.35 |
